Where two headings read alike, the source gives them in different places.
Tests used:
[1] = biological target: T1, hNTS1R (Homo sapiens, UniProt P30989); test: Radioligand competition binding with [^3H]UR-MK300 at intact HT-29 cells; settings: [^3H]UR-MK300 (Kd = […], c = 1 nM), 23 °C
T1 construct: at hNTS1R expressing intact human HT-29 colon carcinoma cells; endogenous in cells; host or cells: HT-29 human colon carcinoma cells (intact)
Method: Unspecific binding was subtracted from total binding to obtain specific binding. Data analysis was performed by plotting % specifically bound radioligand (100% = specifically bound radioligand in the absence of competitor) over log(concentration of competitor) followed by a four-parameter logistic fit (SigmaPlot 12.5, Systat Software). […] The Ki values from individual experiments were transformed to pKi values, followed by the calculation of mean pKi values ± SEM.

[2] = In vitro stability in human plasma/PBS (1:2 v/v) at 37 °C; type: in vitro ADME; settings: human blood plasma/PBS (1:2 v/v), read-out: % intact peptide in human plasma after the given incubation time
Method: (§1) The metabolic stabilities of 11–14, 16 and 18–21 (cf. Table 2) were investigated in human blood plasma/PBS (136.9 mM NaCl, 2.68 mM KCl, 5.62 mM Na2HPO4, 1.09 mM NaH2PO4 and 1.47 mM KH2PO4) pH 7.4 (1:2, v/v) according to a described procedure[13] with the following modifications: 5 mM stock solutions in EtOH/0.04% aq TFA (30:70 v/v) (11–13), MeCN/0.025% aq TFA (30:70 v/v) (14), MeCN/0.04% aq TFA (30:70 v/v) (16, 19 and 21) or EtOH/H2O (40:60 v/v) (18, 20) were used for the addition of the peptides to plasma/PBS (1:2 v/v). As the RP-HPLC purity of 1-Methyl-D-Trp (internal standard, IS) was < 95% (data not shown), the compound was purified by preparative HPLC to give a purity of > 99%. The concentration of the peptides in plasma/PBS (1:2 v/v) was 80 and 4 µM (recovery determination) or 100 µM (stability tests). The obtained recoveries and the recovery ratios (peptide/internal standard) are summarized in Supplementary Table S1. Data analysis was based on UV detection at 220 nm. Additionally, the stability of compound 21 was investigated in mouse plasma/PBS (1:2 v/v) using the same procedure as described above for human plasma. Mouse plasma was obtained by the collection of blood from anaesthetized mice via cardiac puncture using a syringe that was rinsed with sodium heparin (25,000 I.E., Ratiopharm, Ulm, Germany). The heparinized blood was transferred into a 2-mL reaction vessel, followed by centrifugation (1200 g, 4 °C, 10 min). The supernatants were pooled, centrifuged again (1200 g, 4 °C, 10 min), the plasma was aliquoted and stored at − 80 °C. The concentration of 21 in plasma/PBS (1:2 v/v) was 80 and 4 μM (recovery determination) or 100 μM (stability tests). The obtained recoveries and the recovery ratios (21/IS) are summarized in Supplementary Table S2. Data analysis was based on UV detection at 220 nm.

[3] = In vitro stability in mouse plasma/PBS (1:2 v/v) at 37 °C; type: in vitro ADME; settings: read-out: % intact peptide in mouse plasma after the given incubation time
Method: as §1

T1 sequence (P30989 whole entry): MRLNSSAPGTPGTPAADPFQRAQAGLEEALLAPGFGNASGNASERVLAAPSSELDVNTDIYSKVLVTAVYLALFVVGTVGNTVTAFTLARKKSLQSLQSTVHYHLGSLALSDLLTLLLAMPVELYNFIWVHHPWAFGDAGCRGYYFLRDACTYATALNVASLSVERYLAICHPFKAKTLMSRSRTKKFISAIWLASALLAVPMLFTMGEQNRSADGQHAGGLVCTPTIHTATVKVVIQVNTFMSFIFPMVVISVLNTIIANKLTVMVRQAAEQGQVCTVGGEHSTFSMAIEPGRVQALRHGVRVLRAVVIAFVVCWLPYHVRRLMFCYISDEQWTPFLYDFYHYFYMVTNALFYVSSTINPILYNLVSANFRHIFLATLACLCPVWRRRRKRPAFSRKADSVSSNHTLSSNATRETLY

In the case of `CN[C@@H](CCCNC(=N)NC(=O)NCCCCNC(=O)CCc1cn([C@@H]2O[C@H](CF)[C@@H](O)[C@H](O)[C@H]2O)nn1)C(=O)N[C@@H](CCCNC(=N)N)C(=O)N1CCC[C@H]1C(=O)N[C@@H](Cc1ccc(O)cc1)C(=O)N[C@H](C(=O)N[C@@H](CC(C)C)C(=O)O)C(C)(C)C` [Compound 21, N^α-methyl-(N^ω-{N-[4-(3-{1-[6-deoxy-6-fluoro-β-D-glucopyranosyl]-1H-1,2,3-triazol-4-yl}propanoyl)aminobutyl]aminocarbonyl})Arg-Arg-Pro-Tyr-2-tert-butyl-Gly-Leu-OH tris(hydrotrifluoroacetate)], the Ki ([1]; mean) is reported as “one-digit nanomolar range”, the Ki ([1]; mean, read-out: Ki (converted)) is reported as 4.3 nM and the Ki ([1]; read-out: pKi ± SEM (converted)) is reported as 4.07 nM. The remaining at 1 h, 100 µM ([2]; pH 7.4, 1 h) was over 99%, the remaining at 6 h, 100 µM ([2]; pH 7.4, 6 h) was over 99% and the remaining at 24 h, 100 µM ([2]; pH 7.4, 24 h) was over 99%. It also gave a remaining at 48 h, 100 µM ([2]; pH 7.4, 48 h) of 99 ± 1%, a remaining at 10 min, 100 µM ([3]; pH 7.4, 10 min) of over 99% and a remaining at 1 h, 100 µM ([3]; pH 7.4, 1 h) of over 99%. It also gave a remaining at 2 h, 100 µM ([3]; pH 7.4, 2 h) of over 99%, a remaining at 6 h, 100 µM ([3]; pH 7.4, 6 h) of over 99% and a remaining at 24 h, 100 µM ([3]; pH 7.4, 24 h) of over 99%. The remaining at 48 h, 100 µM ([3]; pH 7.4, 48 h) was over 99%.

— article PMC9440028, “Neurotensin analogs by fluoroglycosylation at N^ω-carbamoylated arginines for PET imaging of NTS1-positive tumors” (Scientific Reports, 2022)
